Experimental data as given in ChEMBL document CHEMBL3745668, “Synthesis and biological evaluation of novel 5-hydroxylaminoisoxazole derivatives as lipoxygenase inhibitors and metabolism enhancing agents” (Bioorg Med Chem, 2016).
Activity calls are given as the source filed them. The rule behind the calls is not given here.

Legend:
[1] = biological target: T1, Seed linoleate 13S-lipoxygenase-1 (Glycine max, UniProt P08170); assay: Inhibition of soybean LOX1 assessed as reduction in linoleic acid oxidation measured every 10 s for 10 mins by spectrophotometry analysis
T1 sequence (P08170 whole entry): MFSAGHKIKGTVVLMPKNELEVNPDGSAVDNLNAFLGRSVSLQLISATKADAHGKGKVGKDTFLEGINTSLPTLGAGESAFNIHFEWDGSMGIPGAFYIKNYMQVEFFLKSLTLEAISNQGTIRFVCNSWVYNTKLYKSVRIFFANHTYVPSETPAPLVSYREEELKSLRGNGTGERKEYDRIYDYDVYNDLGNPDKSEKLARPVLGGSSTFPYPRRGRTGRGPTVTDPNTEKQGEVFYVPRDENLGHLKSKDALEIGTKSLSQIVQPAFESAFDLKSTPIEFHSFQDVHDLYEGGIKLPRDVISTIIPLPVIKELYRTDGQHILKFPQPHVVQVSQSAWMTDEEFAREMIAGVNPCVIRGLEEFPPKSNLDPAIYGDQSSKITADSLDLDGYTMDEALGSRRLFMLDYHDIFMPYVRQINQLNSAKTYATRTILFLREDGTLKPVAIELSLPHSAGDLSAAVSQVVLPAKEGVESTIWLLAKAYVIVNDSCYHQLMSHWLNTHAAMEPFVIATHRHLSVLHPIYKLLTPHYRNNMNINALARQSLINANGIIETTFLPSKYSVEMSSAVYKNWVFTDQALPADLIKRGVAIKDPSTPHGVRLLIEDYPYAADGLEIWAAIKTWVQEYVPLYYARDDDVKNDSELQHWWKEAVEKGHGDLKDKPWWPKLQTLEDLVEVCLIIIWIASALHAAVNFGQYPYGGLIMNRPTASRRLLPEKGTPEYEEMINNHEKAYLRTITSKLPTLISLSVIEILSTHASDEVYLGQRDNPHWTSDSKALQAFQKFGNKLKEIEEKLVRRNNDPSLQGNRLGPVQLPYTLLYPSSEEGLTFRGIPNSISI

Brain [2] = assay: Antioxidant activity in albino rat brain homogenate assessed as inhibition of Fe(II)-induced lipid peroxidation after 60 mins by TBARS assay; format: functional, tissue-based
Rattus norvegicus [3] = organism: Rattus norvegicus; assay: Effect on mitochondrial membrane potential in albino rat liver mitochondria using succinate as substrate by safranine A staining based assay in presence of rotenone or glutamate/malate; format: functional
Rattus norvegicus [4] = organism: Rattus norvegicus; assay: Effect on calcium-induced depolarization of albino rat liver mitochondria using succinate as substrate by safranine A staining based assay in presence of rotenone or glutamate/malate; format: functional
[5] = Antioxidant activity assessed as DPPH radical scavenging activity after 30 mins by spectrophotometry analysis; format: physicochemical
Brain [6] = assay: Antioxidant activity in albino rat brain homogenate assessed as inhibition of Fe(III)-induced lipid peroxidation after 60 mins by TBARS assay; format: functional, tissue-based; settings: 1 h
Rattus norvegicus [7] = organism: Rattus norvegicus; assay: Increase in oxygen consumption rate of mitochondrial resting respiration in albino rat liver mitochondria at 10 uM by XF96 extracellular flux analysis in presence of oligomycin; format: functional
[8] = Cytotoxicity against albino rat primary cerebellar granule neurons assessed as reduction in cell viability at 30 uM after 24 hrs by MTT assay; settings: primary cerebellar granule neuron
Rattus norvegicus [9] = organism: Rattus norvegicus; assay: Increase in FCCP-stimulated oxygen consumption rate of mitochondrial coupled state respiration in albino rat liver mitochondria at 10 uM by XF96 extracellular flux analysis; format: functional
Rattus norvegicus [10] = organism: Rattus norvegicus; assay: Increase in oxygen consumption rate of mitochondrial coupled state respiration in albino rat liver mitochondria using succinate as substrate at 10 uM by XF96 extracellular flux analysis in presence of rotenone; format: functional
[11] = biological target: T2, Seed linoleate 13S-lipoxygenase-1 (Glycine max) (UniProt P08170); assay: Inhibition of soybean LOX1 assessed as reduction in linoleic acid oxidation at 50 uM measured every 10 s for 10 mins by spectrophotometry analysis
T2 sequence (whole entry): T1 sequence (P08170 whole entry)

[12] = Cytotoxicity against albino rat primary cerebellar granule neurons assessed as reduction in cell viability at 30 uM after 24 hrs by MTT assay relative to control; settings: primary cerebellar granule neuron
SH-SY5Y = assay: Cytotoxicity against human SH-SY5Y cells assessed as reduction in cell viability at 30 uM after 24 hrs by MTT assay relative to control; format: cell-based
Brain [13] = assay: Antioxidant activity in Wstar rat brain homogenate assessed as inhibition of Fe(II)-induced TBARS formation incubated for 15 mins by spectrophotometry analysis; format: functional, tissue-based; settings: 0.25 h
[14] = Antioxidant activity assessed as DPPH radical scavenging activity after 20 mins; format: physicochemical
[15] = Rattus norvegicus, Brain, 1 h, read-out: IC50

Structure (SMILES)	IC50 ([1]; read-out: IC50)	IC50 (Brain [2]; [15])	EC50 [5]	IC50 (Brain [6])	IC50 [1]	inhibition [11]	IC50 [14]	IC50 (Brain [2])	Activity (Rattus norvegicus [3])	Activity (Rattus norvegicus [4])	Activity (Rattus norvegicus [7])	Activity [8]	Activity (Rattus norvegicus [9])	Activity (Rattus norvegicus [10])	Activity [12]	Activity (SH-SY5Y)	IC50 (Brain [13])
O=C(OC1C2CC3CC(C2)CC1C3)c1cc(N(O)C2CCCO2)on1 (stereo not given)	4 µM	10.5 µM	71 µM	1.21 µM	–	–	–	–	inactive	inactive	–	–	–	–	–	–	–
O=C(OCc1ccc(C23CC4CC(CC(C4)C2)C3)cc1)c1cc(N(O)C2CCCO2)on1 (stereo not given)	–	3.41 µM	> 100 µM	5.45 µM	Not Active	–	–	–	inactive	inactive	inactive	Non-toxic	Active	Active	–	–	–
O=C(OCC12CC3CC(CC(C3)C1)C2)c1cc(N(O)C2CCCO2)on1 (stereo not given)	16 µM	6.58 µM	70 µM	22 µM	–	–	–	–	inactive	inactive	inactive	Non-toxic	Active	Active	–	22%	–
O=C(OCCOC12CC3CC(CC(C3)C1)C2)c1cc(N(O)C2CCCO2)on1 (stereo not given)	–	–	> 100 µM	35 µM	Not Active	–	–	Not Active	inactive	inactive	inactive	Non-toxic	Active	Active	–	–	–
CC(C)OC(=O)C12CC3CC(CC(OC(=O)c4cc(N(O)C5CCCO5)on4)(C3)C1)C2 (stereo not given)	277 µM	2.74 µM	> 100 µM	1.58 µM	–	–	–	–	inactive	inactive	inactive	Non-toxic	Active	Active	–	–	–

These reach a lower EC50 [5]. Values come first.

IC50 ([1]; read-out: IC50)	IC50 (Brain [2]; [15])	EC50 [5]	IC50 (Brain [6])	IC50 [1]	inhibition [11]	IC50 [14]	IC50 (Brain [2])	Structure (SMILES)	Activity (Rattus norvegicus [3])	Activity (Rattus norvegicus [4])	Activity (Rattus norvegicus [7])	Activity [8]	Activity (Rattus norvegicus [9])	Activity (Rattus norvegicus [10])	Activity [12]	Activity (SH-SY5Y)	IC50 (Brain [13])
1 µM	5.16 µM	38 µM	1.48 µM	–	Active	–	–	CC12CC3CC(C)(C1)CC(OC(=O)c1cc(N(O)C4CCCO4)on1)(C3)C2 (stereo not given)	inactive	inactive	inactive	Non-toxic	Active	Active	–	–	–
0.4 µM	3.15 µM	21 µM	5.25 µM	–	–	–	–	O=C(OCCC12CC3CC(CC(C3)C1)C2)c1cc(N(O)C2CCCO2)on1 (stereo not given)	inactive	inactive	inactive	–	Active	Active	77%	–	–
25 µM	0.33 µM	16 µM	1.37 µM	–	–	–	–	O=C(OC12CC3CC(CC(C3)C1)C2)c1cc(N(O)C2CCCO2)on1 (stereo not given)	inactive	inactive	inactive	–	Active	Active	–	–	–
–	–	14 µM	–	–	–	43 µM	–	C[C@H](c1cc2ccccc2s1)N(O)C(N)=O	–	–	–	–	–	–	–	–	> 50 µM
